These results are taken from US10765629B2 (Allergan, Inc., priority 2017, dated 2020).

This series in a line: Stability study at 40° C./75% RH (appearance; potency by HPLC). The series is classed as physicochemical. The method, then: All the vials were sealed with HPLC vial cap. The Time 0 samples were in −20° C. freezer and all other samples in 40° C./75% RH chamber. […] After appropriate dilution, analyzed the samples by HPLC according to the method below:
The standard stock solution of Compound 1 was prepared by dissolving 1.18 mg Compound 1 with 25 ml mixture of acetonitrile and water (acetonitrile:water=1:1). The stock solution was serially further diluted with a dilution factor of 2 to obtain a standard calibration curve.

With `NC(=O)CCC/C=C\C[C@@H]1[C@@H](/C=C/[C@@H](O)CCc2cc(Cl)sc2Cl)[C@H](O)C[C@@H]1O` [Compound 1, (Z)-7-((1R,2R,3R,5S)-2-((S,E)-5-(2,5-dichlorothiophen-3-yl)-3-hydroxypent-1-en-1-yl)-3,5-dihydroxycyclopentyl)hept-5-enamide], the “Physical state on storage” value runs as follows: (40° C./75% RH, 12 weeks) “became an oil”; (40° C./75% RH, within hours) “turns into oil”. For the same compound, the Appearance entry by setting is: (Day 1, 40° C./75% RH) “Oil”; (Time 0, sample kept in −20° C. freezer) “White”; (Week 1, 40° C./75% RH) “Oil”; (Week 2, 40° C./75% RH) “Oil”; (Week 4, 40° C./75% RH) “Oil”; (Week 8, 40° C./75% RH) “Oil”. For the same compound, under “Week 12, 40° C./75% RH”, the Appearance entry was “Oil”. Further, the Potency loss entry (end of the 12-week study, 40° C./75% RH, HPLC) is on record as “about 20%”.
